System: Human hepatocytes (HepG2) and human melanoma cells (M10)
Assay: Micronuclei in binucleated cells after γ-radiation, cells treated with amifostine
Assay type: cell-based
Details: binucleated cells after 60 hours
Method: Human hepatocytes (HepG2) and human melanoma cells (M10) were cultured in α-Minimum Essential Medium (Gibco) at 37° C. in 5% CO2. Cells were mixed with BME (i.e., Basement Membrane Matrix Phenol Red-free (BD Biosciences Matrigel)) chilled to 4° C. and printed onto a glass microfluidic chip having a PDMS substrate (see FIGS. 13 and 14) using a temperature-controlled BME printing apparatus 0-5° C. (see, for example, FIGS. 9 and 10).
After the 4 hour treatment with amifostine, the cells were exposed to 2 Grays of γ-radiation from a cesium source. […] Then, the cells were incubated and allowed to divide for 60 hours and examined for evidence of radiation damage.
Binucleated cells were examined for the presence of micronuclei as evidence of radiation damage.

## NCCCNCCSP(=O)(O)O [amifostine]
Microfluidic chip, 1 mM amifostine perfusion 4 hours before and 90 minutes after 2 Grays γ-radiation
  radiation-treated cells found to have micronuclei: about 3%
Tissue culture plate, 1 mM amifostine 4 hours before and 90 minutes after 2 Grays γ-radiation
  radiation-treated cells found to have micronuclei: about 4%

Source: patent US20110136162A1, “Compositions and Methods for Functionalized Patterning of Tissue Engineering Substrates Including Bioprinting Cell-Laden Constructs for Multicompartment Tissue Chambers” (Drexel University, priority 2009, published 2011)
